Results reported in BigSolDB 2.1.

Conditions: in n-hexane

SMILES	solubility (mole fraction) (293.15 K)	solubility (mole fraction) (298.15 K)	solubility (mole fraction) (303.15 K)	solubility (mole fraction) (310.15 K)	solubility (mole fraction) (315.15 K)
CC(=O)c1ccc(NC2=NCCC3(CCCCC3)S2)cc1	1.56e-05	1.93e-05	2.42e-05	3.23e-05	3.95e-05
CC(C)c1ccc(NC2=NCCC3(CCCCC3)S2)cc1	0.000514	0.00061	0.000742	0.000919	0.0011
c1ccc(NC2=NCCC3(CCCCC3)S2)cc1	0.00115	0.0013	0.00148	0.0019	0.00215
Brc1ccc(NC2=NCCC3(CCCCC3)S2)cc1	2.46e-05	3.31e-05	4.34e-05	6.54e-05	8.27e-05
COc1ccc(NC2=NCCC3(CCCCC3)S2)cc1	0.000149	0.000182	0.000221	0.000295	0.000357
Cc1ccc(NC2=NCCC3(CCCCC3)S2)cc1Cl	8.6e-06	1.15e-05	1.48e-05	2.15e-05	2.68e-05
Clc1ccc(NC2=NCCC3(CCCCC3)S2)cc1	6.09e-05	7.93e-05	0.000101	0.000136	0.00017
O=C(NC1=NCCC2(CCCCC2)S1)c1ccccc1	0.000124	0.000153	0.000189	0.00025	0.000295
FC(F)(F)c1ccc(NC2=NCCC3(CCCCC3)S2)cc1	0.000214	0.000272	0.000345	0.000424	0.00057
Cc1ccc(NC2=NCCC3(CCCCC3)S2)cc1	0.00028	0.000326	0.000379	0.000445	0.00052
CCc1ccc(NC2=NCCC3(CCCCC3)S2)cc1	0.000365	0.000431	0.000508	0.000617	0.000885
